Consider 4 compounds from patent US20250387322A1, “DRUG DELIVERY AGENTS FOR PREVENTION OR TREATMENT OF PULMONARY DISEASE” (UNIVERSITY INDUSTRY FOUNDATION, YONSEI UNIVERSITY WONJU …, priority 2018, published 2025).

The test system of data set [1] is pulmonary fibrosis animal model. As to the kind of experiment: Bleomycin (BLM) pulmonary fibrosis model: histopathology, immunohistochemistry, micro-CT. In kind it is in vivo. Particulars: FIG. 15A. The source says:
FIG. 15A illustrates an effect of nintedanib-loaded PLGA disc particles according to one embodiment of the present disclosure, and FIGS. 15B to 15E illustrate experimental results according to each comparison group. […] FIGS. 15A to 15E illustrate results obtained by evaluating tissue morphology and degrees of inflammation and fibrosis through histopathological and immunohistochemical changes. Also, a scale bar in FIG. 15A is 100 μm. […] At this time, Nib is orally administered in the BLM and Nib administered group.

For data set [2] the following is noted: in vivo; cited from earlier work.
The conditions of data set [3]: in vivo; cited from earlier work. This is another data set of the same source.
Data set [4] relates to lung cancer metastasis model. The experiment in a line: Optical imaging of carrier/drug distribution in lung cancer metastasis model. Format: in vivo. How it is done: FIG. 9 is an optical microscope image of major organs 3 hours after injecting a lung disease drug delivery carrier according to one Example of the present disclosure and Comparative Example into a lung cancer metastasis model. A GFP filter image may identify the presence or absence of cancer and a location thereof by labeling cancer cells with GFP (green fluorescent protein).
FIG. 10 is an optical microscope image of a lung cancer metastasis model injected with a lung disease drug delivery carrier according to one Example of the present disclosure.
FIG. 18A is an image of photographing the locations of cancer tumor and the locations of an injected DOX-DPP (doxorubicin-loaded disc-shaped drug delivery carrier) in an animal model, and FIG. 18B illustrates comparison of the locations of cancer tumor in major organs and amounts of doxorubicin alone (free DOX) or DOX-DPP in major organs. In this regard, the scale bar in FIG. 18A means 5 mm, and the scale bar in FIG. 18B means 20 mm. In addition, the cancer is a cancer cell expressing a GFP green fluorescent protein.

The test system of data set [5] is C57BL/6 mice with lung cancer.

With `COC(=O)c1ccc2c(c1)NC(=O)/C2=C(\Nc1ccc(N(C)C(=O)CN2CCN(C)CC2)cc1)c1ccccc1` [Nib, nintedanib], the “inflammatory response and fibrous mass (histopathology)” value in data set [1] was “an inflammatory response is shown and the formation of a dense fibrous mass is shown”.

Turning to `CCNC(=O)[C@@H]1CCCN1C(=O)[C@H](CCCNC(=N)N)NC(=O)[C@H](CC(C)C)NC(=O)[C@@H](CC(C)C)NC(=O)[C@H](Cc1ccc(O)cc1)NC(=O)[C@H](CO)NC(=O)[C@H](Cc1c[nH]c2ccccc12)NC(=O)[C@H](Cc1c[nH]cn1)NC(=O)[C@@H]1CCC(=O)N1` [Leuprolide], in data set [2], the “bioavailability compared to the subcutaneous route” value was 50%.

For the compound `Cc1ccc(=O)n(-c2ccccc2)c1` [pirfenidone], the bioavailability (in general, dose-corrected exposure relative to a reference, in per cent) in data set [3] is 4.7%.

On to `COc1cccc2c1C(=O)c1c(O)c3c(c(O)c1C2=O)C[C@@](O)(C(=O)CO)C[C@@H]3O[C@H]1C[C@H](N)[C@H](O)[C@H](C)O1` [Comparative Example 2, doxorubicin], for which the “accumulation in major organs” value in data set [4] (3 hours after injecting, lung cancer metastasis model, FIG. 9) was “accumulated in the liver and kidneys in addition to the lungs”. For the same compound, in data set [4] (animal model with GFP-expressing cancer, FIGS. 18A, 18B), the “distribution of drug in major organs” value was “the drug is distributed even in major organs”. Besides, the “metastatic tumor nodules in lung” value in data set [5] (FIG. 19B) is recorded as “more metastatic tumor nodules appeared”. Besides, the cardiac toxicity result in data set [5] (long-period administration) is on record as “cardiac toxicity appears”. For the same compound, the “inflammation in heart and kidney” value in data set [5] (organ tissue images, FIG. 20) is “strong inflammatory responses occur in the heart and kidney”.
